Laboratory results taken from patent US10100047B2, “Piperidine derivatives as orexin receptor antagonist” (SHANGHAI HAIYAN PHARMACEUTICAL TECHNOLOGY CO., LTD., priority 2014, dated 2018).
Where two headings read alike, the source gives them in different places.

How the values were obtained:
hOX1R = target: T1, hOX1R (Homo sapiens, UniProt O43613); assay: In vitro test of OX1R: calcium signal change in cells detected with FLIPR; assay type: cell-based; conditions: HEK293-OX1 stable cell strain, Fluo-4 AM calcium signal, Orexin A at EC70
T1 construct: expressed in transfected cells
T1 sequence (O43613 1-425): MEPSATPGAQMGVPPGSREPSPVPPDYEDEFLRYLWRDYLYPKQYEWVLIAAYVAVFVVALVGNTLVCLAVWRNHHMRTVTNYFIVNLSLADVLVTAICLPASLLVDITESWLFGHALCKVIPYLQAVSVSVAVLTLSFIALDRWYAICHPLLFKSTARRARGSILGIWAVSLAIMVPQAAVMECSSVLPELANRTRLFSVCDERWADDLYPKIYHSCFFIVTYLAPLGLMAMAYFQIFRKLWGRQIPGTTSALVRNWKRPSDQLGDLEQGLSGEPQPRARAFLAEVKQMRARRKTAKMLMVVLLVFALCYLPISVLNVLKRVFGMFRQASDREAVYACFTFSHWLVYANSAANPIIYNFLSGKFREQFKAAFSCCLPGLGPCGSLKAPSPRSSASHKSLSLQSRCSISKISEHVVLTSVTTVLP
Protocol: (§1) The inhibitive effect of a compound on OX1 and OX2 GPCR receptor was evaluated by detecting calcium signal change in cells with FLIPR, and IC50 value of compound was used as an indication.
(§2) Experimental Materials: • Cell line: HEK293-OX1 and OX2 stable cell strain • HEK293-OX1 cell culture media (DMEM, Invitrogen#11960-044, 10% serum Gibco#10099141, L-Glutamine 1×, Gibco#25030, sodium pyruvate 1×, Gibco #11360, Geneticin 300 μg/ml, Gibco #10131). • HEK293-OX2 cell culture media (DMEM, Invitrogen#11960-044, 10% serum Gibco#10099141, L-Glutamine 1×, Gibco#25030, sodium pyruvate 1×, Gibco #11360, Geneticin 300 μg/ml, Gibco #10131, Blasticin 2 μg/ml, Invitrogen # R21001). • Pancreatic enzyme (Invitrogen, #25200-072) • DPBS (Hyclone, #SH30028.01B) • Fluo-4 AM, Invitrogen# F14202 • F-127, Invitrogen # P3000MP • Probenecid, Sigma # P8761 • 384-well cell plate, Greiner #781946 • 384-well compound plate, Greiner #781280 • CO2 incubator, Thermo#371 • Centrifuge, Eppendorf #5810R • Vi-cell cytometry, Beckman Coulter • POD 810 Plate Assembler Automatic microplate pretreatment system • Labcyte FLIPR, Molecular Device.
(§3) a) cell inoculation (HEK293-OX1 and HEK293-OX2 cells) • 1) The medium trypsin, and DPBS were preheated at 37° C. under water bath. Culture medium of cells was sucked and cells were washed with 10 mL DPBS. • 2) The preheated trypsin was added into the culture bottle which was rotated so that trypsin uniformly covered the bottle. It was placed in an incubator (37° C., 5% CO2) to digest for 1-2 minutes; • 3) Each T150 was suspended with 10-15 mL of culture medium, and centrifuged at 800 rpm for 5 minutes. Cells were resuspended with 10 mL medium, and 1 mL of the cell re-suspension was sucked out and counted with Vi-cell cytometry. • 4) The OX1 cells were diluted with culture medium to 5×10^5 cells/mL, and OX2 cells were diluted to 4×10^5 cells/mL. The diluted cells were added into 384 plate (Greiner. 781946) with multichannel pipettes (50 μL/hole, OX1 cells: 25000 cells/hole; and OX2 cells: 20000 cells/hole). The cell plate was placed in an incubator (37° C., 5% CO2) overnight.
(§4) b) loading of the compound: • 1) DMSO was used to dilute the compound into 20 mM by using 3-fold dilution. 8 gradients in duplicate wells were used. Echo liquid handler was used to add the compound into a compound plate. Then 20 μL buffer was added to ensure that the final DMSO concentration was 0.1%.
(§5) c) FLIPR Experiment: • 1) The cell culture medium in 384-well plate was washed away with a vacuum pump. 30 μL fluorescent dye Fluo4AM was added. […] 8 gradients in duplicate wells were used. Then the DMSO plate was prepared and the DMSO concentration was 0.5%. The cell plate, Orexin A plate, and DMSO plate were placed into FLIPR respectively, and the fluorescence values were read. • 3) EC70 value was calculated based on EC50 value of Orexin A. 5×EC70 solution was prepared and added into a 384-well compound plate with multichannel pipettes. The plate was placed on ice for preservation. • 4) In the FLIPR, the compound plate, 5×EC70 plate, cell plate and FLIPR tips were placed respectively. The program was run and the fluorescence values were read.
(§6) d) Data Analysis: Prism5.0 was used to analysis the data, and the IC50 value of the compound was calculated.

hOX2R = target: T2, hOX2R (Homo sapiens, UniProt O43614); assay: In vitro test of OX2R: calcium signal change in cells detected with FLIPR; assay type: cell-based; conditions: HEK293-OX2 stable cell strain, Fluo-4 AM calcium signal, Orexin A at EC70
T2 construct: expressed in transfected cells
T2 sequence (O43614 1-444): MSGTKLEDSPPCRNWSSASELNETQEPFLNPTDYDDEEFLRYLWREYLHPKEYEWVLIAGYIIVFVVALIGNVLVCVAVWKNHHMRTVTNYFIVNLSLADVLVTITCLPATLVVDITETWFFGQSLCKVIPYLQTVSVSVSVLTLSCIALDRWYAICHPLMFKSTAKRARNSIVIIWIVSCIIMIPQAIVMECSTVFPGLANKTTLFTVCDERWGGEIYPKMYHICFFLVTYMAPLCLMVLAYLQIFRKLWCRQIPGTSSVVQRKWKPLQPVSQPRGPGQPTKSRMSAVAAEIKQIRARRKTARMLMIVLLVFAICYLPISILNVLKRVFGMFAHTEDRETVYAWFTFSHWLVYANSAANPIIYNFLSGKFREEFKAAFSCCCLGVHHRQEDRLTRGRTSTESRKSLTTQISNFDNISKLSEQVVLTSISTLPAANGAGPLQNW
Protocol: as §1, §2, §3, §4, §5, §6

[1] = read-out: IC50 detected in FLIPR, hOX1R
[2] = read-out: IC50 detected in FLIPR, hOX2R

Structure (SMILES) | IC50 (hOX1R; IC50 detected in FLIPR, hOX1R) | IC50 (hOX2R; IC50 detected in FLIPR, hOX2R) | IC50 (hOX1R; [1]) | IC50 (hOX2R; [2])
Cc1ccc(-c2nccs2)c(C(=O)N2C3CC[C@H]2CC[C@@H]3OCc2ccc(F)cn2)c1 [Example 37] | 20 nM | 36 nM |  | 
O=C(c1cc(C(F)(F)F)ccc1-c1ncccn1)N1C2CC[C@H]1CC[C@@H]2COc1ccc(F)cn1 [Example 35] | 2070 nM | 1420 nM |  | 
Cc1ccc(C)c(C(=O)N2C3CC[C@H]2CC[C@@H]3OCc2ccc(F)cn2)c1 [Example 36] |  |  | 217 nM | 195 nM
Cc1ccc(-c2ncccn2)c(C(=O)N2C3CC[C@H]2CC[C@@H]3COc2ccc(F)cc2)c1 [Example 29] |  |  | 68 nM | 121 nM
Cc1ccc(-c2ncccn2)c(C(=O)N2C3CCC(COc4ccc(F)cn4)C2CC3)c1 (single isomer, unassigned) [Example 7] |  |  | 1270 nM | 291 nM
O=C(c1ccc(F)cc1-n1nccn1)N1C2CC[C@H]1CC[C@@H]2COc1ccc(F)cn1 [Example 15] | 37 nM | 55 nM |  | 
O=C(c1c(F)cccc1-n1nccn1)N1C2CC[C@H]1CC[C@@H]2COc1ccc(F)cn1 [Example 9] | 24 nM | 15 nM |  | 
O=C(c1cc(Cl)ccc1-n1ccnn1)N1C2CC[C@H]1CC[C@@H]2COc1ccc(F)cn1 [Example 19] |  |  | 41 nM | 372 nM
Cc1ccc(-c2ncccn2)c(C(=O)N2C3CCC(C(=O)Nc4ccccc4O)C2CC3)c1 (stereo not shown) [Example 27] | 3000 nM | 3000 nM |  | 
O=C(c1cc(Cl)ccc1-c1ncccn1)N1C2CC[C@H]1CC[C@@H]2COc1ccc(F)cn1 [Example 18] | 127 nM | 904 nM |  | 
Cc1ccc(-c2ccccn2)c(C(=O)N2C3CC[C@H]2CC[C@@H]3COc2ccc(F)cn2)c1 [Example 11] |  |  | 321 nM | 363 nM
Cc1ccc(-c2ncccn2)c(C(=O)N2C3CCC(c4nc5ccccc5o4)C2CC3)c1 (stereo not shown) [Example 28] | 34 nM | 23 nM |  | 
Cc1ccc(-c2cccnc2)c(C(=O)N2C3CCC2[C@@H](COc2ccc(F)cn2)CC3)c1 (stereo partly shown) [Example 33] | 10 nM | 24 nM |  | 
O=C(c1cc(Cl)ccc1-n1nccn1)N1C2CC[C@H]1CC[C@@H]2COc1ccc(F)cn1 [Example 16] | 56 nM | 440 nM |  | 
Cc1ccc(-c2ccccc2)c(C(=O)N2C3CC[C@H]2CC[C@@H]3COc2ccc(F)cn2)c1 [Example 12] | 219 nM | 206 nM |  | 
Cc1ccc(-c2ccncc2)c(C(=O)N2C3CC[C@H]2CC[C@@H]3COc2ccc(F)cn2)c1 [Example 13] | 47 nM | 663 nM |  | 
Cc1ccc(-c2ncccn2)c(C(=O)N2C3CCC(COc4ccc(F)cn4)C2CC3)c1 (single isomer, unassigned) [Example 8] |  |  | 4260 nM | 4610 nM
Cc1ccc(-c2cncnc2)c(C(=O)N2C3CCC2[C@@H](COc2ccc(F)cn2)CC3)c1 (stereo partly shown) [Example 34] | 2300 nM | 2510 nM |  | 

Structure (SMILES) | IC50 (hOX1R; IC50 detected in FLIPR, hOX1R) | IC50 (hOX2R; IC50 detected in FLIPR, hOX2R) | IC50 (hOX1R; [1]) | IC50 (hOX2R; [2])
O=C(c1cc(F)ccc1-c1ncccn1)N1C2CC[C@H]1CC[C@@H]2COc1ccc(F)cn1 [Example 17] |  |  | 43 nM | 47 nM
Cc1ccc(-c2ncccn2)c(C(=O)N2C3CCC2[C@@H](COc2ccccn2)CC3)c1 (stereo partly shown) [Example 23] | 45 nM | 97 nM |  | 
Cc1ccc(-n2cccn2)c(C(=O)N2C3CC[C@H]2CC[C@@H]3COc2ccc(F)cn2)c1 [Example 20] | 7 nM | 26 nM |  | 
Cc1cccc(S(=O)(=O)N2C3CC[C@H]2CC[C@@H]3COc2ccc(F)cn2)c1 [Example 22] | 2420 nM | 1370 nM |  | 
Cc1ccc(-c2ncccn2)c(C(=O)N2C3CC[C@H]2CC[C@@H]3COc2ccncc2)c1 [Example 32] |  |  | 7 nM | 6 nM
Cc1ccc(-c2ncccn2)c(C(=O)N2C3CC[C@H]2CC[C@@H]3COc2ccc(F)cc2F)c1 [Example 30] | 489 nM | 262 nM |  | 
Cc1nc(C(=O)N2C3CC[C@H]2CC[C@@H]3COc2ccc(F)cn2)c(-c2ccccc2)s1 [Example 10] | 29 nM | 73 nM |  | 
Cc1ccc(-n2nccn2)c(C(=O)N2C3CCC(COc4ccc(F)cn4)C2CC3)c1 (single isomer, unassigned) [Example 3] |  |  | 2070 nM | 1420 nM
O=C(c1cc(F)ccc1-n1nccn1)N1C2CC[C@H]1CC[C@@H]2COc1ccc(F)cn1 [Example 14] | 16 nM | 20 nM |  | 
Cc1ccc(-c2ncccn2)c(C(=O)N2C3CC[C@H](COc4ccc(F)cn4)[C@@H]2CC3)c1 [Example 6] |  |  | 2550 nM | 4190 nM
Cc1ccc(OCC2CCC3CCC2N3C(=O)c2cc(C)ccc2-c2ncccn2)nc1 (stereo not shown) [Example 24] | 56 nM | 87 nM |  | 
Cc1cccc(C(=O)N2C3CC[C@H]2CC[C@@H]3COc2ccc(F)cn2)c1 [Example 21] |  |  | 567 nM | 741 nM
Cc1ccc(-c2ncccn2)c(C(=O)N2C3CCC(COc4ncc(Cl)cc4F)C2CC3)c1 (stereo not shown) [Example 25] |  |  | 113 nM | 124 nM
Cc1ccc(-c2ncccn2)c(C(=O)N2C[C@H](COc3ccc(F)cn3)CC[C@H]2C)c1 [MK6096, reference compound] |  |  | 36 nM | 29 nM
Cc1ccc(-c2ncccn2)c(C(=O)N2C3CCC2C(F)(COc2ccc(F)cn2)CC3)c1 (stereo not shown) [Example 26] |  |  | 48 nM | 37 nM
Cc1ccc(-n2nccn2)c(C(=O)N2C3CCC(COc4ccc(F)cn4)C2CC3)c1 (single isomer, unassigned) [Example 4] |  |  | 217 nM | 195 nM
Cc1ccc(-c2ncccn2)c(C(=O)N2C3CC[C@H]2CC[C@@H]3COc2cccnc2)c1 [Example 31] | 305 nM | 221 nM |  | 
